According to BigSolDB 2.1:

O=P(NC1CCCCC1)(Oc1ccccc1)Oc1ccccc1
solubility (mole fraction)
Details | in THF | in acetone | in acetonitrile | in benzene | in chloroform | in dichloromethane | in ethanol | in ethyl acetate | in methanol | in toluene
278.15 K | – | – | – | – | – | 0.0884 | – | – | – | –
283.15 K | – | – | – | – | – | 0.102 | – | – | – | –
288.15 K | – | – | – | – | – | 0.129 | – | – | – | –
293.15 K | 0.168 | 0.0439 | 0.0115 | 0.077 | 0.207 | 0.155 | 0.0358 | 0.0305 | 0.0411 | 0.0539
298.15 K | 0.192 | 0.0611 | 0.0171 | 0.0991 | 0.233 | 0.18 | 0.049 | 0.0395 | 0.0533 | 0.0688
303.15 K | 0.229 | 0.0796 | 0.0248 | 0.127 | 0.266 | 0.216 | 0.0638 | 0.0549 | 0.0702 | 0.0911
308.15 K | 0.269 | 0.109 | 0.0371 | 0.159 | 0.313 | 0.26 | 0.0867 | 0.0721 | 0.0955 | –
313.15 K | 0.318 | 0.134 | 0.0521 | 0.195 | 0.352 | – | 0.116 | 0.0946 | 0.121 | 0.154
318.15 K | 0.372 | 0.187 | 0.0759 | 0.25 | 0.4 | – | 0.153 | 0.128 | 0.161 | –
323.15 K | 0.419 | 0.229 | 0.106 | 0.292 | 0.459 | – | 0.196 | 0.166 | 0.212 | 0.259
328.15 K | 0.504 | 0.271 | 0.148 | 0.374 | 0.518 | – | 0.253 | 0.211 | 0.281 | –
333.15 K | 0.567 | – | 0.191 | 0.457 | – | – | 0.317 | 0.264 | 0.356 | 0.409
338.15 K | – | – | 0.263 | 0.55 | – | – | 0.406 | 0.341 | – | –
343.15 K | – | – | 0.358 | 0.636 | – | – | – | 0.426 | – | 0.611
